# Measured values: US10206937B2, “Boronic acid derivatives and therapeutic uses thereof” (Qpex Biopharma, Inc., priority 2014, dated 2019)
# System: strains of Enterobacteriaceae producing various carbapenemases (class A, D and B; 104 strains)
# Experiment: Antibiotics potentiation by Compound 27 (MIC; meropenem, doripenem, ertapenem, cefepime)
# Assay type: cell-based
# Settings: + 27 = with Compound 27 at fixed 4 μg/ml
compound,measurement,setting,value
COc1ccc2c(c1C(=O)O)OB(O)C(Sc1nnc(N)s1)C2 (centres unmarked) [M + 27],MIC,strain CF1012 Citrobacter freundii (KPC-2),X (MIC of less than 1 μg/mL)
same,MIC,strain CF1021 Citrobacter freundii (CMY-type; VIM-1),X (MIC of less than 1 μg/mL)
same,MIC,"strain CF1022 Citrobacter freundii (SHV-12(2be), TEM-OSBL(2b); IMP-8)",X (MIC of less than 1 μg/mL)
same,MIC,"strain CF1023 Citrobacter freundii (SHV-12(2be), TEM-OSBL(2b); CTX-M-3; CMY-34; NDM-1)",X (MIC of less than 1 μg/mL)
same,MIC,strain CL1080 Enterobacter cloacae (IMP-1),X (MIC of less than 1 μg/mL)
same,MIC,"strain EA1019 Enterobacter aerogenes (SHV-5, VIM-1)",X (MIC of less than 1 μg/mL)
same,MIC,strain EC1007 Escherichia coli (KPC-3),X (MIC of less than 1 μg/mL)
same,MIC,"strain EC1061 Escherichia coli (NDM-1, CMY-6)",X (MIC of less than 1 μg/mL)
same,MIC,"strain EC1062 Escherichia coli (OXA-48, CTX-M-15)",X (MIC of less than 1 μg/mL)
same,MIC,"strain EC1064 Escherichia coli (NDM-1, CMY-6, CTX-M-15)",Y (MIC of 1 μg/mL to 10 μg/mL)
same,MIC,strain EC1065 Escherichia coli (IMP-1),X (MIC of less than 1 μg/mL)
same,MIC,strain EC1068 Escherichia coli (VIM-1),X (MIC of less than 1 μg/mL)
same,MIC,strain EC1069 Escherichia coli (CTX-M-27; NDM-1),X (MIC of less than 1 μg/mL)
same,MIC,strain EC1070 Escherichia coli (TEM-OSBL(2b); CMY-42; NDM-5),X (MIC of less than 1 μg/mL)
same,MIC,strain EC1072 Escherichia coli (CTX-M-3; NDM-1),X (MIC of less than 1 μg/mL)
same,MIC,strain ECL1004 Enterobacter cloacae (NMC-A),X (MIC of less than 1 μg/mL)
same,MIC,"strain ECL1026 Enterobacter cloacae (KPC-2, TEM-1)",X (MIC of less than 1 μg/mL)
same,MIC,"strain ECL1036 Enterobacter cloacae (KPC-3, TEM-1)",X (MIC of less than 1 μg/mL)
same,MIC,strain ECL1045 Enterobacter cloacae (VIM-1),X (MIC of less than 1 μg/mL)
same,MIC,"strain ECL1055 Enterobacter cloacae (KPC-3, TEM)",X (MIC of less than 1 μg/mL)
same,MIC,"strain ECL1057 Enterobacter cloacae (NDM-1, TEM-1, CTX-M-15)",Z (MIC of greater than 10 μg/mL)
same,MIC,"strain ECL1058 Enterobacter cloacae (KPC-3, SHV-11, TEM-1)",X (MIC of less than 1 μg/mL)
same,MIC,"strain ECL1059 Enterobacter cloacae (KPC-3, SHV-12, TEM-1)",X (MIC of less than 1 μg/mL)
same,MIC,"strain ECL1061 Enterobacter cloacae (KPC-3, Hyper AmpC expression)",X (MIC of less than 1 μg/mL)
same,MIC,strain ECL1082 Enterobacter cloacae (VIM-1),X (MIC of less than 1 μg/mL)
same,MIC,strain ECL1084 Enterobacter cloacae (CTX-M-15; ACT-16; NDM-1),X (MIC of less than 1 μg/mL)
same,MIC,"strain ECL1085 Enterobacter cloacae (SHV-31(2be), TEM-1(2b); CTX-M-15; NDM-1)",X (MIC of less than 1 μg/mL)
same,MIC,"strain ECL1086 Enterobacter cloacae (VIM-31, OXA-48(c))",X (MIC of less than 1 μg/mL)
same,MIC,strain ECL1087 Enterobacter cloacae (VIM-1),X (MIC of less than 1 μg/mL)
same,MIC,strain ECL1088 Enterobacter cloacae (TEM-1(2b); CTX-M-14; ACT-type; VIM-1),X (MIC of less than 1 μg/mL)
same,MIC,strain ECL1089 Enterobacter cloacae (ACT-type; IMP-1),Y (MIC of 1 μg/mL to 10 μg/mL)
same,MIC,strain ECL1090 Enterobacter cloacae (TEM-1(2b); CTX-M-22; ACT-type; IMP-8),X (MIC of less than 1 μg/mL)
same,MIC,strain ECL1091 Enterobacter cloacae (VIM-1),X (MIC of less than 1 μg/mL)
same,MIC,strain ECL1092 Enterobacter cloacae (TEM-OSBL(2b); ACT-32; VIM-1),X (MIC of less than 1 μg/mL)
same,MIC,strain ECL1093 Enterobacter cloacae (TEM-OSBL(2b); ACT-32; VIM-1),X (MIC of less than 1 μg/mL)
same,MIC,strain ECL1094 Enterobacter cloacae (VIM-1),X (MIC of less than 1 μg/mL)
same,MIC,"strain ECL1096 Enterobacter cloacae (CMY-4, VIM-4, OXA-48(c))",X (MIC of less than 1 μg/mL)
same,MIC,"strain ECL1097 Enterobacter cloacae (SHV-31(2be), TEM-OSBL(2b); CTX-M-15; ACT-31; NDM-1)",X (MIC of less than 1 μg/mL)
same,MIC,strain ECL1098 Enterobacter cloacae (TEM-OSBL(2b); DHA-1; ACT-16; NDM-1),X (MIC of less than 1 μg/mL)
same,MIC,strain KP1001 Klebsiella pneumoniae (KPC TEM SHV),Y (MIC of 1 μg/mL to 10 μg/mL)
same,MIC,strain KP1002 Klebsiella pneumoniae (KPC TEM SHV),X (MIC of less than 1 μg/mL)
same,MIC,strain KP1003 Klebsiella pneumoniae (KPC TEM SHV),X (MIC of less than 1 μg/mL)
same,MIC,"strain KP1004 Klebsiella pneumoniae (KPC-2, TEM-1, SHV-11)",X (MIC of less than 1 μg/mL)
same,MIC,strain KP1008 Klebsiella pneumoniae (KPC-2),X (MIC of less than 1 μg/mL)
same,MIC,"strain KP1014 Klebsiella pneumoniae (VIM-1, TEM, SHV)",X (MIC of less than 1 μg/mL)
same,MIC,"strain KP1054 Klebsiella pneumoniae (VIM-1, SHV-11)",X (MIC of less than 1 μg/mL)
same,MIC,"strain KP1059 Klebsiella pneumoniae (VIM-1, SHV-11)",Y (MIC of 1 μg/mL to 10 μg/mL)
same,MIC,"strain KP1061 Klebsiella pneumoniae (KPC-3, SHV-11, TEM-1)",X (MIC of less than 1 μg/mL)
same,MIC,"strain KP1064 Klebsiella pneumoniae (KPC-2, SHV-11, TEM-1)",Y (MIC of 1 μg/mL to 10 μg/mL)
same,MIC,"strain KP1065 Klebsiella pneumoniae (VIM-1, SHV-11)",X (MIC of less than 1 μg/mL)
same,MIC,"strain KP1070 Klebsiella pneumoniae (KPC-2, SHV-11, TEM-1)",X (MIC of less than 1 μg/mL)
same,MIC,"strain KP1074 Klebsiella pneumoniae (KPC-3, SHV-11, TEM)",Z (MIC of greater than 10 μg/mL)
same,MIC,"strain KP1081 Klebsiella pneumoniae (NDM-1, TEM-1, SHV-11, CMY-6, CTX-M-15)",X (MIC of less than 1 μg/mL)
same,MIC,"strain KP1082 Klebsiella pneumoniae (KPC-2, SHV-1)",X (MIC of less than 1 μg/mL)
same,MIC,"strain KP1083 Klebsiella pneumoniae (KPC-3, SHV-1, TEM-1)",X (MIC of less than 1 μg/mL)
same,MIC,"strain KP1084 Klebsiella pneumoniae (KPC-3, SHV-11, TEM-1)",Y (MIC of 1 μg/mL to 10 μg/mL)
same,MIC,"strain KP1086 Klebsiella pneumoniae (OXA-48, CTX-M-15, TEM, SHV)",Y (MIC of 1 μg/mL to 10 μg/mL)
same,MIC,"strain KP1087 Klebsiella pneumoniae (KPC-2, CTX-M-15, SHV-11, TEM-1)",Y (MIC of 1 μg/mL to 10 μg/mL)
same,MIC,"strain KP1088 Klebsiella pneumoniae (KPC-3, SHV-11, TEM-1)",X (MIC of less than 1 μg/mL)
same,MIC,"strain KP1089 Klebsiella pneumonias (OXA-181, CTX-M-15, TEM, SHV)",X (MIC of less than 1 μg/mL)
same,MIC,strain KP1095 Klebsiella pneumoniae (KPC-2 TEM-1 SHV-1),X (MIC of less than 1 μg/mL)
same,MIC,strain KP1096 Klebsiella pneumoniae (KPC-2 TEM-181 SHV-11),X (MIC of less than 1 μg/mL)
same,MIC,strain KP1097 Klebsiella pneumonias (IMP-1),X (MIC of less than 1 μg/mL)
same,MIC,strain KP1098 Klebsiella pneumoniae (IMP-26),Y (MIC of 1 μg/mL to 10 μg/mL)
same,MIC,strain KP1104 Klebsiella pneumoniae (KPC TEM),X (MIC of less than 1 μg/mL)
same,MIC,strain KP1105 Klebsiella pneumoniae (KPC TEM SHV),X (MIC of less than 1 μg/mL)
same,MIC,strain KP1159 Klebsiella pneumoniae (SHV-1(2b); CTX-M-15; IMP-4),X (MIC of less than 1 μg/mL)
same,MIC,strain KP1160 Klebsiella pneumoniae (SHV-28(2be); CTX-M-15; IMP-26),X (MIC of less than 1 μg/mL)
same,MIC,strain KP1161 Klebsiella pneumoniae (NDM-1),X (MIC of less than 1 μg/mL)
same,MIC,strain KP1164 Klebsiella pneumoniae (SHV-12(2be); VIM-1),X (MIC of less than 1 μg/mL)
same,MIC,strain KP1165 Klebsiella pneumoniae (SHV-11(2b); CTX-M-15; VIM-27),Z (MIC of greater than 10 μg/mL)
same,MIC,strain KP1166 Klebsiella pneumoniae (SHV-5(2be); VIM-26),Y (MIC of 1 μg/mL to 10 μg/mL)
same,MIC,strain KP1167 Klebsiella pneumoniae (SHV-12(2be); VIM-1),X (MIC of less than 1 μg/mL)
same,MIC,strain KP1169 Klebsiella pneumoniae (SHV-11(2b); VIM-1),X (MIC of less than 1 μg/mL)
same,MIC,strain KP1170 Klebsiella pneumoniae (SHV-11(2b); CTX-M-15; NDM-1),X (MIC of less than 1 μg/mL)
same,MIC,strain KP1172 Klebsiella pneumoniae (SHV-31(2be); DHA-1; VIM-1),X (MIC of less than 1 μg/mL)
same,MIC,strain KP1173 Klebsiella pneumoniae (TEM-33(2br); CTX-M-15; IMP-1),X (MIC of less than 1 μg/mL)
same,MIC,strain KP1174 Klebsiella pneumoniae (CTX-M-14; IMP-1),X (MIC of less than 1 μg/mL)
same,MIC,strain KP1175 Klebsiella pneumoniae (SHV-OSBL(2b); VIM-1),X (MIC of less than 1 μg/mL)
same,MIC,"strain KP1177 Klebsiella pneumoniae (SHV-OSBL(2b), TEM-OSBL(2b); CTX-M-15; NDM-1)",X (MIC of less than 1 μg/mL)
same,MIC,strain KP1178 Klebsiella pneumoniae (SHV-OSBL(2b;) TEM-OSBL(2b); CTX-M-15; NDM-1),X (MIC of less than 1 μg/mL)
same,MIC,"strain KP1179 Klebsiella pneumoniae (SHV-12(2be), TEM-OSBL(2b); CTX-M-15; NDM-7)",X (MIC of less than 1 μg/mL)
same,MIC,"strain KP1180 Klebsiella pneumoniae (SHV-OSBL(2b), TEM-OSBL(2b); CTX-M-15; DHA-1; IMP-26)",X (MIC of less than 1 μg/mL)
same,MIC,strain KP1181 Klebsiella pneumoniae (SHV-OSBL(2b); CTX-M-15; IMP-26),X (MIC of less than 1 μg/mL)
same,MIC,"strain KP1183 Klebsiella pneumoniae (SHV-OSBL(2b), TEM-OSBL(2b); CTX-M-15; NDM-1)",X (MIC of less than 1 μg/mL)
same,MIC,strain KP1184 Klebsiella pneumoniae (SHV-OSBL(2b); IMP-1),X (MIC of less than 1 μg/mL)
same,MIC,"strain KP1185 Klebsiella pneumoniae (SHV-OSBL(2b), TEM-OSBL(2b); IMP-4)",Y (MIC of 1 μg/mL to 10 μg/mL)
same,MIC,strain KP1186 Klebsiella pneumoniae (CTX-M-15; NDM-1),X (MIC of less than 1 μg/mL)
same,MIC,"strain KP1187 Klebsiella pneumoniae (SHV-55(2be), TEM-OSBL(2b); CTX-M-15; NDM-1)",X (MIC of less than 1 μg/mL)
same,MIC,strain KP1188 Klebsiella pneumoniae (SHV-OSBL(2b); CTX-M-15; NDM-1),Y (MIC of 1 μg/mL to 10 μg/mL)
same,MIC,strain KP1189 Klebsiella pneumoniae (TEM-OSBL(2b); CTX-M-15; CTX-M-27; NDM-1),X (MIC of less than 1 μg/mL)
same,MIC,strain KPM1123 Klebsiella pneumoniae (KPC-2 TEM SHV),X (MIC of less than 1 μg/mL)
same,MIC,strain KPM1202 Klebsiella pneumoniae (KPC SHV TEM),X (MIC of less than 1 μg/mL)
same,MIC,strain KPM1203 Klebsiella pneumoniae (KPC SHV TEM),X (MIC of less than 1 μg/mL)
same,MIC,strain KPM1344 Klebsiella pneumoniae (VIM-1),X (MIC of less than 1 μg/mL)
same,MIC,strain KPM1345 Klebsiella pneumoniae (VIM-1 SHV),X (MIC of less than 1 μg/mL)
same,MIC,strain KPM1347 Klebsiella pneumoniae (NDM-1 SHV CTX-M-15),X (MIC of less than 1 μg/mL)
same,MIC,"strain KX1017 Klebsiella oxytoca (KPC-2, OXA-2, SHV-30)",X (MIC of less than 1 μg/mL)
same,MIC,"strain KX1018 Klebsiella oxytoca (KPC-2, SHV-40, OXY-1)",X (MIC of less than 1 μg/mL)
same,MIC,"strain KX1019 Klebsiella oxytoca (KPC-2, OXA-2)",X (MIC of less than 1 μg/mL)
same,MIC,strain PM1024 Proteus mirabilis (TEM-1(2b); CMY-16; VIM-1),X (MIC of less than 1 μg/mL)
same,MIC,strain PM1026 Proteus mirabilis (DHA-1; IMP-26),X (MIC of less than 1 μg/mL)
same,MIC,strain PM1027 Proteus mirabilis (VIM-5),X (MIC of less than 1 μg/mL)
same,MIC,strain SM1023 Serratia marcescens (VIM-4),Y (MIC of 1 μg/mL to 10 μg/mL)
